# According to patent publication US8598132B2, “Glycosylated indolocarbazoles, method for obtaining same and uses thereof” (Universidad de Oviedo, priority 2008, dated 2013):
# What was measured:
# JAK2 = JAK2 (Homo sapiens, UniProt O60674); assay: LabChip (Caliper) kinase assay, JAK2; assay type: biochemical; conditions: for inhibition at 0.01 µM / inhibition at 0.1 µM: JAK2, read-out: remaining kinase activity (in %) / percentage of inhibition; for inhibition at 0.01 µM: compound at 10 nM; for inhibition at 0.1 µM: compound at 100 nM; for IC50: Jak2, ATP at Km, read-out: CI50 (the source's name)
# Method: (§1) The analysis of kinase activity described here was performed using LabChip (Caliper Life Sciences), specifically the Caliper LC3000 and the EZ Reader II instruments.
# (§2) The kinase assay used measures the conversion of a fluorescent peptide (substrate) to a phosphorylated product. The reaction mixture, in a microplate well, is introduced by a capillary in a chip where the non-phosphorylated substrate and the phosphorylated product are separated by […]. The intensity of the fluorescent signal over time is related to the reaction progress. The phosphorylated product migrates quicker than the non-phosphorylated substrate and the signals of the two forms of the peptide appear as differentiated peaks. The Caliper determines the peak height and calculates the ratio of product to the peak sum (P/(P+S)). This value is used to compare wells with compounds and wells with controls and thus determine the % of inhibition for the given product.
# (§3) The followings kinases were used for the enzymatic inhibition studies, between brackets the value of the Michaelis-Menten constant, Km, of the ATP (Adenosine triphosphate) for each kinase, in μM: obtained from Carna Biosciences: MAPKAPK2 (4.6), AurA (3.6), AurB (5), PKCζ (3.8), RSK1 (23.3), PRAK (5), Erk1 (33.4), PKD2 (32.1), CK1d (16.3), CHK1 (33), ABL (61.7), FYN (36), LYNa (17), CHK2 (57.8), MET (79.5), LCK (28.5), SRC (38), GSK3β (7.3), Erk2 (62.1), PKACα (1.7), AKT2 (186.1), INSR (871.8), p38a (396.5), AKT1(48), MSK1 (21.2), PKCβ2 (84.8), ROCK2 (3.3), PIM2 (4.9), AMPK (38.6), KDR (164.8), IRAK4 (196.5), SGK1 (121.8), SYK (33.5); obtained from Invitrogen: CDK2 (57.6), BTK (123), HGK (80); obtained from Upstate: MST2 (36.6), PKGα (16), PAK2 (1.9), IGF1R (320), FGFR1 (171), MARK1 (33), CAMK2δ (22.4), c-TAK1 (66), DYRK1a (18.1), CaMK4 (3.9), FLT3 (350), c-Raf (6.2), P70S6K (95).
# (§4) The compounds were dissolved in 100% DMSO and were diluted at 25 times the final concentration desired for the assay. In the case of the determination of Cl50, serial dilutions were made to reach eight concentrations and give rise to the inhibition curve. 1 μL of each concentration is transferred, in duplicate to a 384-well microplate. 12 μL of enzymatic buffer is added to each well containing purified kinase (several suppliers as indicated above), 100 mM HEPES, pH 7.5, 1 mM DTT (Calbiochem), 0.002% Brij-35 (Sigma) and also in presence of 10 mM MgCl2 as cofactor, except for INSR and IRAK4 wherein 10 mM MnCl2 is used instead of MgCl2. For the kinases CAMK26 and CAMK4, 1 mM CaCl2 and 6.7 μg/mL of calmodulin are also added. For KDR kinase, 0.05% of the CHAPSO detergent is added. For the c-Raf kinase, 10 mM MnCl2 is added. For PKCβ2 0.02 μg/mL of PS/PMA is added. For PKGα se 10 μM of cGMP (cyclic guanosine monophosphate) is added. The compound and the enzyme are left for 15 minutes preincubation and, then, the following are added to each well: 12 μL of peptide buffer/ATP containing 100 mM HEPES, pH 7.5, 1.5 μM peptide marker with fluorescein (specific for the corresponding kinase), ATP (at concentration KM), and 0.002% Brij-35 to start the reaction. Generally, the reactions are incubated for 1-1.5 h at ambient temperature to obtain an adequate conversion (15-40%) of the peptide to the phosphorylated product. The reactions were ended by the addition of 45 μL of buffer containing 0 mM EDTA. The microplates were read by the LabChip 3000 using a 12-channel LabChip. The P/(P+S) values were obtained as described above and the CI50 curves were generated using XIfit.
# (§5) Table 9a has the 0150 data obtained in pairs of compound-kinase selected from the compounds of formula (VII), (VIII), (IX), (XVI), (XVII) and (XVIII) after taking inhibition measurements at 100 nM and 10 nM. Those couples that provide >70% of inhibition at 10 nM were consider for measuring its IC50. […]
# Chk1 = biological target: T1, Chk1 (Homo sapiens, UniProt O14757); assay: LabChip (Caliper) kinase assay, Chk1; assay type: biochemical; conditions: for inhibition at 0.01 µM: compound at 10 nM; for inhibition at 0.01 µM / inhibition at 0.1 µM: read-out: remaining kinase activity (in %) / percentage of inhibition; for inhibition at 0.1 µM: compound at 100 nM; for IC50: ATP at Km, read-out: CI50 (the source's name)
# T1 construct: purchased Carna Biosciences
# T1 sequence (O14757 1-476): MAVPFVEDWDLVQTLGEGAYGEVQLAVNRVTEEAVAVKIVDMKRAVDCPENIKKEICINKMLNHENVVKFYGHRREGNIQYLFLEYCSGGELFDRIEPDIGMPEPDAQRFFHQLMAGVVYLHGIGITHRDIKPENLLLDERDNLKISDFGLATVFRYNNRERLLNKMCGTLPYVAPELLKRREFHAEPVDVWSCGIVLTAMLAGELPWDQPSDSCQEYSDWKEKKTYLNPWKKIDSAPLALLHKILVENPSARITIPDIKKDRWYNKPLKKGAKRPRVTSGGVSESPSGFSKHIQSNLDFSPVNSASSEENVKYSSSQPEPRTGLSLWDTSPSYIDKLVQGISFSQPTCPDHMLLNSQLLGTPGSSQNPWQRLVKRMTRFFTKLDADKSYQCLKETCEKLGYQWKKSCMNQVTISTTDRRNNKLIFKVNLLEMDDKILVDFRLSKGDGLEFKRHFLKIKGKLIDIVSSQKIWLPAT
# Method: as §1, §2, §3, §4, §5
# Sequence of JAK2 (O60674 whole entry, species assumed): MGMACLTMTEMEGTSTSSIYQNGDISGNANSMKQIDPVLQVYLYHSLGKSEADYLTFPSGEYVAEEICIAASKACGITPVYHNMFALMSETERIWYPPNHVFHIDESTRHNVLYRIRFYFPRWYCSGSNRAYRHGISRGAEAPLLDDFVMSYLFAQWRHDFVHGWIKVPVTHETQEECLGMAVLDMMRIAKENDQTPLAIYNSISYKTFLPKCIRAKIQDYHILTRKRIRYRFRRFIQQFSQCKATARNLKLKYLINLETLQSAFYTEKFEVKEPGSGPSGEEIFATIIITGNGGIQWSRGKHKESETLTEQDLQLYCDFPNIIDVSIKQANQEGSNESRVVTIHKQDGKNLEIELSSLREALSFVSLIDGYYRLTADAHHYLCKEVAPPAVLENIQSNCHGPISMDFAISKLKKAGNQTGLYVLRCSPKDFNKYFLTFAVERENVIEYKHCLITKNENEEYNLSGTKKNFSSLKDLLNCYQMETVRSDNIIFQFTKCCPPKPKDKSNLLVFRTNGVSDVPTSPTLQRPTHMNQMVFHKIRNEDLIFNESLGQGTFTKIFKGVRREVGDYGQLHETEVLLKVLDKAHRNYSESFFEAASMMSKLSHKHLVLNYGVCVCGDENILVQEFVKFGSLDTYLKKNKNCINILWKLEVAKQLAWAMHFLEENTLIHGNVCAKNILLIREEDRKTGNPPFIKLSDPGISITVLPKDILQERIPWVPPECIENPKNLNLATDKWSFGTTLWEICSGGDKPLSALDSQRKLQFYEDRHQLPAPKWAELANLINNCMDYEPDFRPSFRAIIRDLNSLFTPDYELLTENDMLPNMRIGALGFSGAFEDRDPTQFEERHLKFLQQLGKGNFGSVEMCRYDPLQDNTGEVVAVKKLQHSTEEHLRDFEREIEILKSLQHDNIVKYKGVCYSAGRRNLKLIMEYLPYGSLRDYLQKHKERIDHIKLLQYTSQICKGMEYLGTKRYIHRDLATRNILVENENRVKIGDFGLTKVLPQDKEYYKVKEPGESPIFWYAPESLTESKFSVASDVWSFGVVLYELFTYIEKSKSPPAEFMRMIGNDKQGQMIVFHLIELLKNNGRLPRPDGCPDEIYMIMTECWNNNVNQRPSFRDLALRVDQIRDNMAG
SMILES,inhibition at 0.01 µM (JAK2),inhibition at 0.1 µM (JAK2),inhibition at 0.01 µM (Chk1),inhibition at 0.1 µM (Chk1),IC50 (JAK2),IC50 (Chk1)
"C[C@@H]1O[C@@H](n2c3ccccc3c3c4c(c5c6ccccc6[nH]c5c32)C(=O)NC4=O)[C@H](O)[C@H](O)[C@H]1O [formula (III), N^13-1′-β-L-rhamnosylarcyriaflavin]",-3%,33%,-3%,15%,–,–
"C[C@@H]1O[C@@H](n2c3ccccc3c3c4c(c5c6ccccc6[nH]c5c32)C(=O)NC4=O)C[C@H](O)[C@H]1O [formula (IV), N^13-1′-β-L-olivosylarcyriaflavin]",19%,74%,5%,35%,–,–
"C[C@]12O[C@H](C[C@@H](O)[C@H]1O)n1c3ccccc3c3c4c(c5c6ccccc6n2c5c31)C(=O)NC4=O [formula (IX), N^12-5′(S)-N^13-1′-(R)-L-digitoxosylarcyriaflavin]",–,–,–,–,1.2 nM,–
"C[C@@H]1O[C@@H](n2c3ccccc3c3c4c(c5c6ccccc6[nH]c5c32)C(=O)NC4=O)C[C@@H](O)[C@H]1O [formula (V), N^13-1′-β-L-digitoxosylarcyriaflavin]",23%,65%,45%,81%,–,–
"C[C@H]1O[C@@H](n2c3ccccc3c3c4c(c5c6ccccc6[nH]c5c32)C(=O)NC4=O)C[C@@H](O)[C@@H]1O [formula (VI), N^13-1′-β-D-olivosylarcyriaflavin]",42%,88%,2%,50%,–,–
"C[C@]12O[C@H]([C@H](O)[C@H](O)[C@H]1O)n1c3ccccc3c3c4c(c5c6ccccc6n2c5c31)C(=O)NC4=O [formula (VII), N^12-5′(S)-N^13-1′-(R)-L-rhamnosylarcyriaflavin]",–,–,–,–,0.5 nM,1 nM
"C[C@]12O[C@H](C[C@H](O)[C@H]1O)n1c3ccccc3c3c4c(c5c6ccccc6n2c5c31)C(=O)NC4=O [formula (VIII), N^12-5′(S)-N^13-1′-(R)-L-olivosylarcyriaflavin]",–,–,–,–,0.74 nM,4.9 nM
"C[C@@H]1O[C@@H](n2c3ccccc3c3c4c(c5c6ccccc6[nH]c5c32)CNC4=O)[C@H](O)[C@H](O)[C@H]1O [formula (XII), N^13-1′-β-L-rhamnosyl-k252c]",7%,39%,2%,8%,–,–
"C[C@@H]1O[C@@H](n2c3ccccc3c3c4c(c5c6ccccc6[nH]c5c32)CNC4=O)C[C@H](O)[C@H]1O [formula (XIII), N^13-1′-β-L-olivosyl-k252c]",14%,79%,1%,27%,–,–
"C[C@@H]1O[C@@H](n2c3ccccc3c3c4c(c5c6ccccc6[nH]c5c32)CNC4=O)C[C@@H](O)[C@H]1O [formula (XIV), N^13-1′-β-L-digitoxosyl-k252c]",-4%,25%,6%,46%,–,–
"C[C@H]1O[C@@H](n2c3ccccc3c3c4c(c5c6ccccc6[nH]c5c32)CNC4=O)C[C@@H](O)[C@@H]1O [formula (XV), N^13-1′-β-D-olivosyl-k252c]",37%,89%,4%,20%,–,–
"C[C@]12O[C@H]([C@H](O)[C@H](O)[C@H]1O)n1c3ccccc3c3c4c(c5c6ccccc6n2c5c31)CNC4=O [formula (XVI), N^12-5′(S)-N^13-1′-(R)-L-rhamnosyl-k252c]",–,–,–,–,0.43 nM,2.4 nM
"C[C@]12O[C@H](C[C@H](O)[C@H]1O)n1c3ccccc3c3c4c(c5c6ccccc6n2c5c31)CNC4=O [formula (XVII), N^12-5′(S)-N^13-1′-(R)-L-olivosyl-k252c]",–,–,–,–,0.57 nM,–
"C[C@]12O[C@H](C[C@@H](O)[C@H]1O)n1c3ccccc3c3c4c(c5c6ccccc6n2c5c31)CNC4=O [formula (XVIII), N^12-5′(S)-N^13-1′-(R)-L-digitoxosyl-k252c]",–,–,–,–,0.53 nM,> 10 nM
